“And” between values parts separate entries of the source, which are not always exact repeats. Equal values may be shown once. The source made the active and inactive calls. How the calls were made is not given here.
Each compound was assayed against Serine/threonine-protein kinase PLK1 (Homo sapiens) (UniProt P53350) (assay: PLK1 polo box domain binding inhibitors, SAR follow-up, biochemical, fluorescence polarization, synthesized analogs, IC50 (AID 1082)). Conditions: PLK1 PBD phosphopeptide binding.
Sequence of Serine/threonine-protein kinase PLK1 (Homo sapiens) (P53350 whole entry, looked up, the tested form may be a part): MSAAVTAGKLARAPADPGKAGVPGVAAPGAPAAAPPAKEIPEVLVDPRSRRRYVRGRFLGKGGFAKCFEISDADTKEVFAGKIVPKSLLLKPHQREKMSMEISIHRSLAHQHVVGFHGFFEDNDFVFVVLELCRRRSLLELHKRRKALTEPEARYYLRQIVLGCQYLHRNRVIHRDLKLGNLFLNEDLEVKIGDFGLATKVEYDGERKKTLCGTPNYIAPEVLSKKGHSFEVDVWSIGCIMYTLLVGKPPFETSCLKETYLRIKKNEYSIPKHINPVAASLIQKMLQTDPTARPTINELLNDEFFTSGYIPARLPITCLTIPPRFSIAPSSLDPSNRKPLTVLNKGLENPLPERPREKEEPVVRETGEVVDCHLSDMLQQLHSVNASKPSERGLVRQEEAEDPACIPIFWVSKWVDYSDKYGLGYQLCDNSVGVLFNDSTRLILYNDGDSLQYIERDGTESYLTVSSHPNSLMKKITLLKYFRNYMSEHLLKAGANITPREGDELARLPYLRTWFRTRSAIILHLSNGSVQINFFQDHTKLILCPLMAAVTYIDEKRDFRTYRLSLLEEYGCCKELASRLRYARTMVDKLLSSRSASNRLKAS
For CCOc1ccc(NC(=O)c2c(N)n(C)c(=O)[nH]c2=O)cc1, the IC50 was > 50 µM (inactive). With CCOC(=O)c1cccc(NC(=O)c2c(O)[nH]c(=O)[nH]c2=O)c1 the IC50 was > 50 µM (inactive). In the case of COC(=O)c1ccccc1NC(=O)c1c(O)c2c([nH]c1=O)CCCC2, the IC50 is reported as > 50 µM (inactive). In the case of CCCCOC(=O)c1ccc(NC(=O)c2c(N)n(C)c(=O)[nH]c2=O)cc1, the IC50 is reported as > 50 µM (inactive). In the case of CCCOc1ccc(C(=O)Nc2c[nH]c(=O)[nH]c2=O)cc1, the IC50 is reported as > 50 µM (inactive). For CC1(C)CC(=O)C(C2(O)C(=O)NC(=O)NC2=O)=C(O)C1, the IC50 was > 50 µM (inactive). With O=c1[nH]c(=S)[nH]c(O)c1/C=N/Nc1ccccc1 the IC50 was > 50 µM (inactive). With CCOC(=O)c1ccc(NC(=O)c2c(N)n(Cc3ccccc3)c(=O)[nH]c2=O)cc1 the IC50 was > 50 µM (inactive). In the case of Cn1cc(C(=O)CNc2ccccc2)c(=O)n(C)c1=O, the IC50 is reported as > 50 µM (inactive). With CCOC(=O)c1ccc(NS(=O)(=O)c2c(N)n(C)c(=O)n(C)c2=O)cc1 the IC50 was > 50 µM (inactive). For CCOC(=O)c1ccc(NS(=O)(=O)c2c(N)[nH]c(=O)[nH]c2=O)cc1, the IC50 was > 50 µM (inactive). CCOC(=O)c1cccc(NC(=O)c2c(N)n(C)c(=O)[nH]c2=O)c1 was tested, and the IC50 was > 50 µM (inactive). For CC(C)c1ccc(NC(=O)COC(=O)c2c[nH]c(=O)[nH]c2=O)cc1, the IC50 was > 50 µM (inactive). In the case of O=C(N/N=C/c1c(O)[nH]c(=O)[nH]c1=O)c1ccncc1, the IC50 is reported as > 50 µM (inactive). With CCOC(=O)c1ccc(NC(=O)c2c(N)n(C)c(=O)n(C)c2=O)cc1 the IC50 was > 50 µM (inactive). Cc1ccc(NC(=O)c2c[nH]c(=O)[nH]c2=O)cc1 was tested, and the IC50 was > 50 µM (inactive). In the case of Cc1ccc(N=Cc2c(O)n(-c3ccc(C)cc3)c(=O)[nH]c2=O)cc1, the IC50 is reported as > 50 µM (inactive). With CCOC(=O)c1ccc(NC(=O)c2c(O)[nH]c(=O)[nH]c2=O)cc1 the IC50 was > 50 µM (inactive) and 2.89 µM. CCOC(=O)c1ccc(NC(=O)c2c(NCc3ccccc3)[nH]c(=O)[nH]c2=O)cc1 was tested, and the IC50 was > 50 µM (inactive). For CCOC(=O)c1ccccc1NC(=O)c1c(O)[nH]c(=O)[nH]c1=O, the IC50 was > 50 µM (inactive). For CCOC(=O)c1cccc(NC(=O)c2c(NCc3ccccc3)[nH]c(=O)[nH]c2=O)c1, the IC50 was > 50 µM (inactive). In the case of Cn1c(N)c(S(=O)(=O)Nc2ccccc2)c(=O)n(C)c1=O, the IC50 is reported as > 50 µM (inactive). With CCOC(=O)CCCCCNC(=O)c1c(N)n(C)c(=O)n(C)c1=O the IC50 was > 50 µM (inactive). CCOC(=O)c1ccccc1NC(=O)c1c(O)[nH]c(=S)[nH]c1=O was tested, and the IC50 was > 50 µM (inactive). With CCOC(=O)c1ccccc1NC(=O)c1c(N)n(C)c(=O)[nH]c1=O the IC50 was > 50 µM (inactive). COc1ccc(/C=C/C(=O)c2c(O)n(CCC3=CCCCC3)c(=O)[nH]c2=O)cc1 was tested, and the IC50 was > 50 µM (inactive). For O=C(Nc1ccccc1)c1c(O)[nH]c(=S)[nH]c1=O, the IC50 was > 50 µM (inactive). In the case of CCOc1ccc(NC(=O)c2c(O)[nH]c(=O)[nH]c2=O)cc1, the IC50 is reported as > 50 µM (inactive). CCC(=O)Oc1ccc(C(=O)Nc2c[nH]c(=O)[nH]c2=O)cc1 was tested, and the IC50 was > 50 µM (inactive). For Cn1c2c(c(=O)n(C)c1=O)C(c1ccc(C(F)(F)F)cc1)CC(=O)N2 (stereo not given), the IC50 was > 50 µM (inactive). For O=c1[nH]c(NC2CCCCC2)c([N+](=O)[O-])c(=O)[nH]1, the IC50 was > 50 µM (inactive). CCCCOC(=O)c1ccc(NC(=O)c2c(O)[nH]c(=O)[nH]c2=O)cc1 was tested, and the IC50 was > 50 µM (inactive). Cn1c(N)c(C(=O)Nc2ccccc2)c(=O)[nH]c1=O was tested, and the IC50 was > 50 µM (inactive). For O=C(Nc1ccccc1)c1c(O)[nH]c(=O)[nH]c1=O, the IC50 was > 50 µM (inactive). With CCOC(=O)c1ccc(NC(=O)c2c(N)n(C)c(=O)[nH]c2=O)cc1 the IC50 was > 50 µM (inactive).

Reference: PubChem BioAssay AID1082 (University of Pittsburgh Molecular Library Screening Center, 2008)
